The source of these data is patent publication US5002753A, “Specific ligands for estrogen and progestagen steroid hormone receptors, application and intermediate synthesis products” (IRE-Celltarg S.A., priority 1988, dated 1991).

For one data set, the target named is T1, estrogen receptors (Homo sapiens, UniProt P03372).
T1 construct: cytosols of MCF7 mammary human tumor rich in estrogen receptors; endogenous in cells; host or cells: MCF7 human mammary tumor, cytosol
T1 sequence (P03372 1-595): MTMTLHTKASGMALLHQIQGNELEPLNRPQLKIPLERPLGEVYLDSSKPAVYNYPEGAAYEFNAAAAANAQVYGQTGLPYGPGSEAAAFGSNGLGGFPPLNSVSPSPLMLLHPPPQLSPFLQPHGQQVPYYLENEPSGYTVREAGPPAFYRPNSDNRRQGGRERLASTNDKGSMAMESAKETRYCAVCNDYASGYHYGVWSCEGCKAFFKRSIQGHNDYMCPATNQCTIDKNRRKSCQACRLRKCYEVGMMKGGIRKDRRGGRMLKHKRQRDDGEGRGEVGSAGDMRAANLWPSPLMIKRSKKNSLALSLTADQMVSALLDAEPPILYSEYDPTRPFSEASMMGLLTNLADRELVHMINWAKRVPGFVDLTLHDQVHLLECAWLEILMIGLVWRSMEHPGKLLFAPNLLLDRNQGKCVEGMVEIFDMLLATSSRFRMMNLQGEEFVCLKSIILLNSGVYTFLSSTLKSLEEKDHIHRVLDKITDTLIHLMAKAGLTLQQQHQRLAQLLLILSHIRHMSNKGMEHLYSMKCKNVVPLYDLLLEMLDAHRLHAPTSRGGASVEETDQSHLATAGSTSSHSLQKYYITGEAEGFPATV
The data set is described as follows: Inhibition of the fixation of tritiated estradiol on cytosols of MCF7 mammary human tumor. The data set is classed as binding. The following applies: 25° C, MCF7 cytosol.

Data set [1] is described as follows: Hydrophobicity index based on retention time in reverse phase HPLC. The class given is physicochemical. On the set-up: retention time (hydrophobicity index): dose or concentration left out as unconfirmed. The settings on record: for retention time (hydrophobicity index): HPLC reverse phase, microBondapack C18, 1 ml/min of ethanol in H2O.
For another data set, the target named is T2, estrogen receptor (Bos taurus, UniProt P49884).
T2 sequence (P49884 1-596): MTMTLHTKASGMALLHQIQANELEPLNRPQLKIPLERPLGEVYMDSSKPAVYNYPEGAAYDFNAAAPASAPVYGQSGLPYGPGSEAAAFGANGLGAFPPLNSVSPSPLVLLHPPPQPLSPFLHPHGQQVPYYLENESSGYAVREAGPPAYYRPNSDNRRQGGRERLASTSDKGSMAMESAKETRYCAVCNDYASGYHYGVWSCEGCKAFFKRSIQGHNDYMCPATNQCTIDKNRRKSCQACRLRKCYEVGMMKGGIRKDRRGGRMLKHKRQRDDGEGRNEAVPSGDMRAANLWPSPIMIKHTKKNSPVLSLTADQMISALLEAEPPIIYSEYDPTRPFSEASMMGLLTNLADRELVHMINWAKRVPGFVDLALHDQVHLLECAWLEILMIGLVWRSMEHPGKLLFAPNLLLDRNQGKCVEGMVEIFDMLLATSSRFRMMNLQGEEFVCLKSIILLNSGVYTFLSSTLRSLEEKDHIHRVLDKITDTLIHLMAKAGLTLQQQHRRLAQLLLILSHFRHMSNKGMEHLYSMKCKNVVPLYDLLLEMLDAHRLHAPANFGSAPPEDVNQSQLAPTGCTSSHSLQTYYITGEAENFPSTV
The data set is described as follows: Tests of binding of calf uterus cytosol to the estrogen receptor. An excerpt:
The nonspecific binding to the transport proteins is diminished by virtue of the presence of the 11-beta and 17-alpha groups.

Data set [2] is described as follows: Biodistribution of 125I-labeled Z isomer (16') in ovarectomized BDF1 mice. The class given is in vivo. The following applies: for tissue uptake at 2 h / tissue uptake at 24 h: mouse, 1 uCi, 1 μCi 125I, ± S.D. Here is the method: The biodistribution of the Z isomer (16') in ovarectomized BDF mice is highly favorable.
8 ovarectomized BDF1 mice were injected with 1 μCi of 11beta-chloromethyl-17alpha-(2-iodovinyl)estradiol-(^125 I). 4 mice were sacrificed 2 hours after the estradiolinjection and 4 24 hours after the injection.

Data set [3] can be described thus: Stability of the radioiodinated product in column eluate (60% ethanol) at -20° C. The data set is classed as physicochemical. The method, then: The method is the same as for the labelling of (14').
The starting material is the derivative (15').
The HPLC separation conditions are different: the mobile phase is 60% ethanol in water, the flow rate is 1 ml/min, the final product is collected at 12 minutes. The labeled product is kept as such in the column eluate (60% ethanol). In these conditions, it is stable for at least 12 days at -20° C. (deiodination less than 2%).

The conditions of data set [4]: rat, in vivo, 1440 min; cited from earlier work.
The nature of data set [5]: Acute toxicity in mice grafted with MXT mammary tumors. The following applies: three i.v. injections of 100 μCi at fortnightly intervals, period of 60 days. The class given is in vivo, female BDF1 mice. Here is the method: (§1) Twenty nine female BDF1 mice were grafted with MXT syngenetic mammary tumors implanted subcutaneously. Fourteen mice received three intravenous injections of 100 μCi of 11beta-chloromethyl-17-iodovinyl- ^123 I of E isomerism at fortnightly intervals.
(§2) The 100 μCi of labeled hormone were injected diluted in 200 μl of solution containing 9 g/l NaCl, 5% ethanol and 1% of Tween 80. The fifteen control mice received 200 μl of the NaCl/ethanol/Tween solution on the same dates.

For data set [6], the system named is MXT syngenetic mammary tumors. The data set is described as follows: Targeted radiotherapy of female BDF1 mice grafted with MXT syngenetic mammary tumors. The class given is in vivo. Here is the method:
as §1, §2

The mark [7] stands for this setting: blood, read-out: % injected dose/g of tissue, blood.
[8] abbreviates: fat, read-out: % injected dose/g of tissue, fat.
Where [9] appears, read: kidneys, read-out: % injected dose/g of tissue, kidneys.
The mark [10] stands for this setting: liver, read-out: % injected dose/g of tissue, liver.
[11] abbreviates: muscle, read-out: % injected dose/g of tissue, muscle.
Where [12] appears, read: spleen, read-out: % injected dose/g of tissue, spleen.
The mark [13] stands for this setting: uterus, read-out: % injected dose/g of tissue, uterus.

Where two headings read alike, the source gives them in different places. Bounds are passed on as bounds.

As to `C[C@]12C[C@H](CCl)[C@@H]3c4ccc(O)cc4CC[C@H]3[C@@H]1CC[C@@]2(O)C=CI` [11beta-chloromethyl-17-iodovinylestradiol], the “affinity (in words)” value on estrogen receptors was “an affinity comparable with that of 11beta-chloromethylestradiol and clearly superior to that of estradiol”. Moreover, the relative binding affinity entry on estrogen receptors (versus estradiol) is reported as “greater than 1,000”.
For the compound `C[C@]12C[C@H](CCl)[C@@H]3c4ccc(O)cc4CC[C@H]3[C@@H]1CC[C@@]2(O)/C=C\I` [16', (Z)-11beta-chloromethyl-3,17beta-dihydroxy17alpha-(2-iodovinyl)-1,3,5(10)-estratriene], in data set [1], the “retention time (hydrophobicity index)” value is 12.1 min. In addition, the “hydrophobicity, Z isomer versus E isomer (in words)” value in data set [1] (comparison of Z with E isomer) is “less hydrophobic than the E isomer”. Also, the “binding to the estrogen receptor (in words)” value at estrogen receptor (25° C, 1 h, final 5 mM, versus tritiated estradiol) is given as “binding of the same order as the tritiated estradiol”. At estrogen receptor (25° C, 1 h, saturating dose (final 5 mM), calf uterus cytosol), this compound showed a nonspecific binding of 23%. In addition, the “nonspecific binding to the transport proteins (in words)” value at estrogen receptor (versus tritiated estradiol) was “diminished”. Moreover, the “sensitivity level (in words)” value on estrogen receptor (versus tritiated estradiol, by virtue of the higher specific activity) is “higher sensitivity level”. In addition, the results for the uterus/blood concentration ratio in data set [2] (2 h) and in data set [2] (24 h) were 6.16 and 65.80, respectively. The uterus/fat concentration ratio in data set [2] (2 h) was 2.90; in data set [2] (24 h) it was 35.42. For the same compound, the uterus/liver concentration ratio in data set [2] (2 h) is given as 1.30; in data set [2] (24 h) it was 10.12. In addition, the values for the uterus/muscle concentration ratio in data set [2] (2 h) and in data set [2] (24 h) were 7.48 and 92.10, respectively. Also, the tissue uptake at 2 h in data set [2] (setting [7]) was 1.08 ± 0.24 %ID/g; in data set [2] (setting [8]), 2.29 ± 0.25 %ID/g; in data set [2] (setting [9]), 1.84 ± 0.27 %ID/g; in data set [2] (setting [10]) it was 5.1 ± 0.72 %ID/g; in data set [2] (setting [11]), 0.89 ± 0.07 %ID/g; in data set [2] (setting [12]), 0.97 ± 0.18 %ID/g. Also, the tissue uptake at 2 h in data set [2] (setting [13]) came to 6.66 ± 0.91 %ID/g. Further, the tissue uptake at 24 h in data set [2] (setting [7]) was 0.14 ± 0.02 %ID/g; in data set [2] (setting [8]), 0.26 ± 0.09 %ID/g; in data set [2] (setting [9]) it was 0.2 ± 0.02 %ID/g; in data set [2] (setting [10]), 0.91 ± 0.05 %ID/g; in data set [2] (setting [11]) it was 0.1 %ID/g; in data set [2] (setting [12]), 0.12 ± 0.01 %ID/g. Also, the tissue uptake at 24 h in data set [2] (setting [13]) worked out at 9.21 ± 1.44 %ID/g. For the same compound, the degraded at 288 h in data set [3] (60% ethanol) was below 2%. Also, in data set [3] (column eluate (60% ethanol), -20° C), the “stable for at least (storage stability of labeled product)” value is on record as “at least 12 days”.
Turning to `CCC1C[C@@]2(C)[C@@H](CCC2(O)C=C[125I])[C@@H]2CCc3cc(O)ccc3[C@@H]12` (stereo partly shown) [I-125 17-iodovinyl-11-ethylestradiol, 17-iodovinyl-11-ethylestradiol], in data set [4], the uterus/blood ratio was 40.4, the uterus/liver ratio was 3.89 and the uterus/lung ratio was 52.8.
With `C[C@]12C[C@H](CCl)[C@@H]3c4ccc(O)cc4CC[C@H]3[C@@H]1CC[C@@]2(O)/C=C/[123I]` [11beta-chloromethyl-17-iodovinyl- ^123 I of E isomerism, 11Beta-Chloromethyl-17-Iodovinylestradiol-^123 I], in data set [5], the acute toxicity entry is recorded as “No acute toxicity was detected”. Further, the “tumor growth compared with the control group, % of the average tumor growth” value in data set [6] (day 18, three i.v. injections of 100 μCi at fortnightly intervals) is recorded as “lower than 45%”. Also, the “tumor growth compared with the control group (in words)” value in data set [6] (three i.v. injections of 100 μCi at fortnightly intervals) is recorded as “significant slowing down of the tumor growth”. Moreover, in data set [6] (versus control group), the survival result is on record as “better survival”.
Regarding `C[C@]12C[C@H](CCl)[C@@H]3c4ccc(O)cc4CC[C@H]3[C@@H]1CC[C@@]2(O)/C=C/I` [14', (E)-11-chloromethyl-3,17β-dihydroxy-17α-(2iodovinyl)-1,3,5(10)-estratriene], in data set [1], the “retention time (hydrophobicity index)” value was 14.3 min.
